From US20260206755A1, “COMPOUNDS AND COMPOSITIONS HAVING KNOCK-DOWN OR BLOOD FEED INHIBITION ACTIVITY AGAINST INSECT PESTS” (priority 2017, published 2026)
Like-named read-outs stand apart in the source and are kept apart here.

Tested on: Anopheles stephensi
Test: Anopheles stephensi treated well plate contact test: knockdown and mortality
Format: in vivo
Details: for Knock Down, with TFNA-AM / Knock Down, without TFNA-AM / pest or weed control at 0.02 ppm / pest or weed control at 0.2 ppm / pest or weed control at 2 ppm / pest or weed control at 20 ppm / pest or weed control at 200 ppm: knockdown after 1 hour; for mortality at 0.02 ppm / pest or weed control at 0.02 ppm / mortality at 0.2 ppm / pest or weed control at 0.2 ppm / mortality at 2 ppm / pest or weed control at 2 ppm / mortality at 20 ppm / pest or weed control at 20 ppm / mortality at 200 ppm / pest or weed control at 200 ppm: Anopheles stephensi; for pest or weed control at 0.02 ppm / pest or weed control at 0.2 ppm / pest or weed control at 2 ppm / pest or weed control at 20 ppm / pest or weed control at 200 ppm: read-out: Knock Down, without TFNA-AM
Protocol: Examples Anopheles stephensi (Indian Malaria Mosquito)
The individual wells of twelve (12) well tissue culture plates were treated with 200 μl of an ethanol solution containing a test compound of Table 1 or Table 2 at a defined concentration and repeated with also 200 μl of an ethanol solution containing in addition 2 ppm TFNA-AM. Once the deposits were dry, five non-blood fed adult female Anopheles stephensi (between two to five day old) were added to each well, and sustained with a 10% sucrose solution in a cotton wool plug. Assessment of the knockdown after 1 hour, and mortality after 24 and 48 hours was carried out.
In case of multiple tests, the mean value is reported.

[1] = test compound 0.2 ppm plus 2 ppm TFNA-AM, after 24 hours
[2] = test compound 0.2 ppm plus 2 ppm TFNA-AM, after 48 hours
[3] = test compound 0.2 ppm plus 2 ppm TFNA-AM
[4] = test compound 0.2 ppm, without TFNA-AM, after 24 hours
[5] = test compound 0.2 ppm, without TFNA-AM, after 48 hours
[6] = test compound 0.2 ppm, without TFNA-AM
[7] = test compound 2 ppm plus 2 ppm TFNA-AM, after 24 hours
[8] = test compound 2 ppm plus 2 ppm TFNA-AM, after 48 hours
[9] = test compound 2 ppm plus 2 ppm TFNA-AM
[10] = test compound 2 ppm, without TFNA-AM, after 24 hours
[11] = test compound 2 ppm, without TFNA-AM, after 48 hours
[12] = test compound 2 ppm, without TFNA-AM
[13] = test compound 20 ppm plus 2 ppm TFNA-AM, after 24 hours
[14] = test compound 20 ppm plus 2 ppm TFNA-AM, after 48 hours
[15] = test compound 20 ppm plus 2 ppm TFNA-AM
[16] = test compound 20 ppm, without TFNA-AM, after 24 hours
[17] = test compound 20 ppm, without TFNA-AM, after 48 hours
[18] = test compound 20 ppm, without TFNA-AM
[19] = test compound 200 ppm plus 2 ppm TFNA-AM, after 24 hours
[20] = test compound 200 ppm plus 2 ppm TFNA-AM, after 48 hours
[21] = test compound 200 ppm plus 2 ppm TFNA-AM
[22] = test compound 200 ppm, without TFNA-AM, after 24 hours
[23] = test compound 200 ppm, without TFNA-AM, after 48 hours
[24] = test compound 200 ppm, without TFNA-AM, adult females
[25] = test compound 0.02 ppm, without TFNA-AM
[26] = test compound 0.2 ppm, without TFNA-AM, after 24 hours, read-out: mortality % 24, without TFNA-AM
[27] = test compound 0.2 ppm, without TFNA-AM, after 48 hours, read-out: mortality % 48, without TFNA-AM
[28] = test compound 2 ppm, without TFNA-AM, after 24 hours, read-out: mortality % 24, without TFNA-AM
[29] = test compound 2 ppm, without TFNA-AM, after 48 hours, read-out: mortality % 48, without TFNA-AM
[30] = test compound 20 ppm, without TFNA-AM, after 24 hours, read-out: mortality % 24, without TFNA-AM
[31] = test compound 20 ppm, without TFNA-AM, after 48 hours, read-out: mortality % 48, without TFNA-AM
[32] = test compound 0.02 ppm plus 2 ppm TFNA-AM, after 24 hours
[33] = test compound 0.02 ppm plus 2 ppm TFNA-AM, after 48 hours
[34] = test compound 0.02 ppm plus 2 ppm TFNA-AM
[35] = test compound 200 ppm, without TFNA-AM, after 24 hours, read-out: mortality % 24, without TFNA-AM
[36] = test compound 200 ppm, without TFNA-AM, after 48 hours, read-out: mortality % 48, without TFNA-AM
[37] = 24 h, read-out: mortality % 24, without TFNA-AM
[38] = 48 h, read-out: mortality % 48, without TFNA-AM

N#Cc1ccc(CC(=NNC(=O)Nc2ccc(OC(F)(F)F)cc2)c2cccc(C(F)(F)F)c2)cc1 (mixture of isomers) [Metaflumizone]
mortality % 24, with TFNA-AM [1]: 40%
mortality % 48, with TFNA-AM [2]: 60%
Knock Down, with TFNA-AM [3]: 100%
mortality % 24, without TFNA-AM [4]: 0%
mortality % 48, without TFNA-AM [5]: 0%
Knock Down, without TFNA-AM [6]: 0%
mortality % 24, with TFNA-AM [7]: 100%
mortality % 48, with TFNA-AM [8]: 100%
Knock Down, with TFNA-AM [9]: 100%
mortality % 24, without TFNA-AM [10]: 0%
mortality % 48, without TFNA-AM [11]: 0%
Knock Down, without TFNA-AM [12]: 0%
mortality % 24, with TFNA-AM [13]: 100%
mortality % 48, with TFNA-AM [14]: 100%
Knock Down, with TFNA-AM [15]: 100%
mortality % 24, without TFNA-AM [16]: 0%
mortality % 48, without TFNA-AM [17]: 0%
Knock Down, without TFNA-AM [18]: 0%
mortality % 24, with TFNA-AM [19]: 100%
mortality % 48, with TFNA-AM [20]: 100%
Knock Down, with TFNA-AM [21]: 100%
mortality % 24, without TFNA-AM [22]: 0%
mortality % 48, without TFNA-AM [23]: 80%
Knock Down, without TFNA-AM [24]: 0%

Cc1c(COC(=O)[C@@H]2[C@H](/C=C(\Cl)C(F)(F)F)C2(C)C)cccc1-c1ccccc1 (racemic) [Bifenthrin]
mortality at 0.02 ppm (test compound 0.02 ppm, without TFNA-AM, after 24 hours, read-out: mortality % 24, without TFNA-AM): 20%
mortality at 0.02 ppm (test compound 0.02 ppm, without TFNA-AM, after 48 hours, read-out: mortality % 48, without TFNA-AM): 60%
pest or weed control at 0.02 ppm [25]: 20%
mortality at 0.2 ppm [26]: 100%
mortality at 0.2 ppm [27]: 100%
pest or weed control at 0.2 ppm [6]: 20%
mortality at 2 ppm [28]: 100%
mortality at 2 ppm [29]: 100%
pest or weed control at 2 ppm [12]: 100%
mortality at 20 ppm [30]: 100%
mortality at 20 ppm [31]: 100%
pest or weed control at 20 ppm [18]: 100%
mortality % 24, with TFNA-AM [32]: 100%
mortality % 48, with TFNA-AM [33]: 100%
Knock Down, with TFNA-AM [34]: 100%
mortality % 24, with TFNA-AM [1]: 100%
mortality % 48, with TFNA-AM [2]: 100%
Knock Down, with TFNA-AM [3]: 100%
mortality % 24, with TFNA-AM [7]: 100%
mortality % 48, with TFNA-AM [8]: 100%
Knock Down, with TFNA-AM [9]: 100%
mortality % 24, with TFNA-AM [13]: 100%
mortality % 48, with TFNA-AM [14]: 100%
Knock Down, with TFNA-AM [15]: 100%

CC(C)=C[C@@H]1[C@@H](C(=O)O[C@H](C#N)c2cccc(Oc3ccccc3)c2)C1(C)C (relative stereo) [d-d, trans cyphenothrin]
mortality % 24, with TFNA-AM [32]: 60%
mortality % 48, with TFNA-AM [33]: 20%
Knock Down, with TFNA-AM [34]: 100%
mortality % 24, without TFNA-AM (test compound 0.02 ppm, without TFNA-AM, after 24 hours): 0%
mortality % 48, without TFNA-AM (test compound 0.02 ppm, without TFNA-AM, after 48 hours): 0%
Knock Down, without TFNA-AM [25]: 0%
mortality % 24, with TFNA-AM [1]: 60%
mortality % 48, with TFNA-AM [2]: 100%
Knock Down, with TFNA-AM [3]: 100%
mortality % 24, without TFNA-AM [4]: 0%
mortality % 48, without TFNA-AM [5]: 0%
Knock Down, without TFNA-AM [6]: 0%
mortality % 24, with TFNA-AM [7]: 100%
mortality % 48, with TFNA-AM [8]: 100%
Knock Down, with TFNA-AM [9]: 100%
mortality % 24, without TFNA-AM [10]: 0%
mortality % 48, without TFNA-AM [11]: 0%
Knock Down, without TFNA-AM [12]: 0%
mortality % 24, with TFNA-AM [13]: 100%
mortality % 48, with TFNA-AM [14]: 100%
Knock Down, with TFNA-AM [15]: 100%
mortality % 24, without TFNA-AM [16]: 40%
mortality % 48, without TFNA-AM [17]: 60%
Knock Down, without TFNA-AM [18]: 0%

Cc1ccc(/N=C/N(C)/C=N/c2ccc(C)cc2C)c(C)c1 [Amitraz]
mortality at 0.2 ppm [26]: 0%
mortality at 0.2 ppm [27]: 0%
pest or weed control at 0.2 ppm [6]: 0%
mortality at 2 ppm [28]: 0%
mortality at 2 ppm [29]: 0%
pest or weed control at 2 ppm [12]: 0%
mortality at 20 ppm [30]: 0%
mortality at 20 ppm [31]: 0%
pest or weed control at 20 ppm [18]: 0%
mortality at 200 ppm [35]: 0%
mortality at 200 ppm [36]: 0%
pest or weed control at 200 ppm [24]: 0%
mortality % 24, with TFNA-AM [1]: 20%
mortality % 48, with TFNA-AM [2]: 0%
Knock Down, with TFNA-AM [3]: 100%
mortality % 24, with TFNA-AM [7]: 20%
mortality % 48, with TFNA-AM [8]: 0%
Knock Down, with TFNA-AM [9]: 100%
mortality % 24, with TFNA-AM [13]: 20%
mortality % 48, with TFNA-AM [14]: 40%
Knock Down, with TFNA-AM [15]: 100%
mortality % 24, with TFNA-AM [19]: 100%
mortality % 48, with TFNA-AM [20]: 100%
Knock Down, with TFNA-AM [21]: 100%

C/C=C(\C)C(=O)O[C@H]1C[C@@H](OC(C)=O)[C@@]2(C(=O)OC)CO[C@H]3[C@@H](O)[C@@](C)([C@]45O[C@@]4(C)[C@H]4C[C@@H]5O[C@@H]5OC=C[C@@]54O)[C@H]4[C@]1(CO[C@]4(O)C(=O)OC)[C@@H]32 [Azadirachtin]
mortality at 0.2 ppm [26]: 0%
mortality at 0.2 ppm [27]: 0%
pest or weed control at 0.2 ppm [6]: 0%
mortality at 2 ppm [28]: 0%
mortality at 2 ppm [29]: 0%
pest or weed control at 2 ppm [12]: 0%
mortality at 20 ppm [30]: 0%
mortality at 20 ppm [31]: 0%
pest or weed control at 20 ppm [18]: 0%
mortality at 200 ppm [35]: 0%
mortality at 200 ppm [36]: 0%
pest or weed control at 200 ppm [24]: 0%
mortality % 24, with TFNA-AM [1]: 20%
mortality % 48, with TFNA-AM [2]: 20%
Knock Down, with TFNA-AM [3]: 100%
mortality % 24, with TFNA-AM [7]: 20%
mortality % 48, with TFNA-AM [8]: 20%
Knock Down, with TFNA-AM [9]: 100%
mortality % 24, with TFNA-AM [13]: 60%
mortality % 48, with TFNA-AM [14]: 40%
Knock Down, with TFNA-AM [15]: 100%
mortality % 24, with TFNA-AM [19]: 80%
mortality % 48, with TFNA-AM [20]: 80%
Knock Down, with TFNA-AM [21]: 100%

CNC(=O)Oc1cccc2c1OC(C)(C)O2 [Bendiocarb]
mortality at 0.02 ppm [37]: 0%
mortality at 0.2 ppm [37]: 60%
mortality at 2 ppm [37]: 100%
mortality at 20 ppm [37]: 100%
mortality at 0.02 ppm [38]: 0%
mortality at 0.2 ppm [38]: 60%
mortality at 2 ppm [38]: 100%
mortality at 20 ppm [38]: 100%
pest or weed control at 0.02 ppm [25]: 0%
pest or weed control at 0.2 ppm [6]: 20%
pest or weed control at 2 ppm [12]: 100%
pest or weed control at 20 ppm [18]: 100%
mortality % 24, with TFNA-AM [32]: 20%
Knock Down, with TFNA-AM [34]: 100%
mortality % 24, with TFNA-AM [1]: 100%
mortality % 48, with TFNA-AM [2]: 100%
Knock Down, with TFNA-AM [3]: 100%
mortality % 24, with TFNA-AM [7]: 100%
mortality % 48, with TFNA-AM [8]: 100%
Knock Down, with TFNA-AM [9]: 100%
mortality % 24, with TFNA-AM [13]: 100%
mortality % 48, with TFNA-AM [14]: 100%
Knock Down, with TFNA-AM [15]: 100%

CN(C(=O)c1ccccc1)c1cccc(C(=O)Nc2c(Br)cc(C(F)(C(F)(F)F)C(F)(F)F)cc2C(F)(F)F)c1F [Broflanilide]
mortality % 24, with TFNA-AM [1]: 87%
mortality % 48, with TFNA-AM [2]: 93%
Knock Down, with TFNA-AM [3]: 100%
mortality % 24, without TFNA-AM [4]: 0%
mortality % 48, without TFNA-AM [5]: 20%
Knock Down, without TFNA-AM [6]: 0%
mortality % 24, with TFNA-AM [7]: 100%
mortality % 48, with TFNA-AM [8]: 100%
Knock Down, with TFNA-AM [9]: 100%
mortality % 24, without TFNA-AM [10]: 100%
mortality % 48, without TFNA-AM [11]: 100%
Knock Down, without TFNA-AM [12]: 0%
mortality % 24, with TFNA-AM [13]: 100%
mortality % 48, with TFNA-AM [14]: 100%
Knock Down, with TFNA-AM [15]: 93%
mortality % 24, without TFNA-AM [16]: 100%
mortality % 48, without TFNA-AM [17]: 100%
Knock Down, without TFNA-AM [18]: 0%
mortality % 24, with TFNA-AM [19]: 100%
mortality % 48, with TFNA-AM [20]: 100%
Knock Down, with TFNA-AM [21]: 87%
mortality % 24, without TFNA-AM [22]: 100%
mortality % 48, without TFNA-AM [23]: 100%
Knock Down, without TFNA-AM [24]: 0%
